Experimental data reported in US10138235B2, “Pyrazolopyridine derivatives, preparation process therefor and therapeutic use thereof” (SANOFI, priority 2011, dated 2018).

Key:
[1] = system: HUVEC cells stimulated with FGF-2; assay: In vitro angiogenesis of HUVEC cells induced with FGF-2 (length of pseudotubules); format: cell-based, human; settings: concentration at which active on FGF-2-induced angiogenesis of HUVEC cells, evaluated from 0.03 nM to 300 nM; for minimal effective concentration: Homo sapiens, 24 h
Description: To do this, matrices composed of matrigel (growth factor reduced matrigel, Becton Dickinson 356230) and of collagen (rat tail collagen type I, Becton Dickinson 354236) are deposited in an amount of 160 μl into each chamberslide well (Biocoat Cellware collagen, Type I, 8-well culturesides: Becton dickinson 354630), or 60 μl per well of 96-plate wells (Biocoat collagenl cellware, Becton Dickinson 354407). The matrix is prepared by mixing ⅓ of matrigel, 1 mg/ml final of collagen, 0.1N NaOH (0.026× the volume of collagen in μl), PBS 1×, and the volume is then adjusted with water. The gels are kept for 1 hour at 37° C. to allow their polymerization. Next, the human venous endothelial cells (HUVEC ref.: C-12200—Promocell) were seeded at 15×10^3 or 6×10^3 cells/well in 400 or 120 μl (for the 8-well or 96-well plates, respectively) of EBM medium (Clonetics C3121)+2% FBS+hEGF 10 μg/ml. They are stimulated with 1 or 3 ng/ml of FGF-2 (R&D system, 133-FB-025; Invitrogen, PHG0026) for 24 hours at 37° C. in the presence of 5% CO2. After 24 hours, the length of the network of microtubules formed is measured by means of the computer-assisted image analysis system (Imagenia Biocom, Courtaboeuf, France) and the total length of the pseudotubules in each well is determined. The mean total length of the microcapillary network is calculated in μm for each condition corresponding to the mean on 6 replicates
Stimulation with FGF-2 allows induction of the formation of new tubules. An FGF-R antagonist is considered as being active in this test if it is capable of partially inhibiting this angiogenesis at a dose of less than or equal to 300 nM.
In this experiment, the molecules are evaluated from 0.03 nM to 300 nM depending on the molecule with regard to induction of the angiogenesis of human HUVEC cells with FGF-2. Compounds 38 (Example 2), 46 (Example 1), 53 (Example 3), 56 (Example 4), 57 (Example 6), 61 (Example 5), 75 (Example 12), 83 (Example 13), 88 (Example 8), 91 (Example 15), 93 (Example 14), 106 (Example 11), 108 (Example 7) and 114 (Example 9) are active since they have inhibitory activity on the formation of pseudotubules of greater than or equal to 20% at a dose of less than or equal to 300 nM (FIG. 1). In the following table, A=active for a concentration<1 nM, B=active at a concentration of 1 nM, C=active at a concentration of 3 nM, D=active at a concentration of 10 nM, E=active at a concentration of 30 nM, and F=active at a concentration of 300 nM.

[2] = system: inflammatory angiogenesis in mice; assay: Model of inflammatory angiogenesis in mice (air pocket granuloma); format: in vivo; settings: 30 mg/kg, after one week of treatment
Description: The model described by Colville-N H et al. in 1995 makes it possible to study pharmacological agents that are capable of modulating the appearance of angiogenesis in an inflammatory context. The model is developed on female OF1 mice (Charles River laboratories) weighing about 25 g, and per group of 12. The animals are anaesthetized intraperitoneally with pentobarbital sodium (60 mg/kg; Sanofi Nutrition Santé Animale). An air pocket is created on the mouse's back by injecting 3 ml of air subcutaneously. After waking up, the animals receive a treatment in general by gavage and receive an injection of 0.5 ml of Freud's adjuvant (Sigma) with 0.1% croton oil (Sigma) into the pocket. Seven days later, the mice are again anaesthetized and placed on a hotplate at 40° C. 1 ml of carmine red (Aldrich Chemicals, 5% in 10% of gelatin) is injected into the caudal vein. The animals are then placed at 4° C. for 2-3 hours. The skins are then removed and dried for 24 hours in an oven at 56° C. […] The filtrates are read in a spectrophotometer at 492 nm against a calibration range of carmine red. […] The results are expressed as mean values (±sem). […]
The FGF-R antagonists are evaluated between 1 and 50 mg/kg using methylcellulose/Tween (0.6% v/v) as vehicle or any other vehicle that enables dissolution of the active principle. […]

| Structure (SMILES) | melting point [°C] | minimal effective concentration [1] [µM] | Activity [1] | weight of granuloma (dry weight of the skin) [2] |
| --- | --- | --- | --- | --- |
| COc1cc(-c2cc(C(=O)O)c3cn[nH]c3n2)ccc1N [Compound 38, 6-(4-Amino-3-methoxyphenyl)-1H-pyrazolo[3,4-b]pyridine-4-carboxylic acid] | – | 0.003 | – | – |
| Cn1nc(-c2cccnc2)c2c(C(F)(F)F)cc(-c3cccc(CN4CCOCC4)c3)nc21 [Compound 93] | – | – | F (F=active at a concentration of 300 nM) | – |
| O=C(O)c1cc(-c2cc(C(F)(F)F)c3c(-c4ccccc4)n[nH]c3n2)ccc1F [Compound 56, 2-Fluoro-5-[3-phenyl-4-(trifluoromethyl)-1H-pyrazolo[3,4-b]pyridin-6-yl]benzoic acid] | – | < 0.001 | – | – |
| CN(C)CCn1ncc2c(C(F)F)cc(-c3ccc(N)c(C#N)c3)nc21 [Compound 83] | – | – | D (D=active at a concentration of 10 nM) | – |
| Cn1cc2c(C(F)F)cc(-c3ccc(N)c(C#N)c3)nc2n1 [Compound 106, 2-Amino-5-[4-(difluoromethyl)-2-methyl-2H-pyrazolo[3,4-b]pyridin-6-yl]benzonitrile] | – | < 0.001 | – | – |
| NC(=O)c1cc(-c2ccc(F)c(C(=O)O)c2)nc2[nH]nc(-c3ccccc3)c12 [Compound 46, 5-(4-Carbamoyl-3-phenyl-1H-pyrazolo[3,4-b]pyridin-6-yl)-2-fluorobenzoic acid] | – | < 0.001 | – | significantly reduces |
| O=C(O)c1cc(-c2cc(C(F)F)c3c(-c4ccccc4)n[nH]c3n2)ccc1F [Compound 53, 5-[4-(Difluoromethyl)-3-phenyl-1H-pyrazolo[3,4-b]pyridin-6-yl)-2-fluorobenzoic acid] | – | < 0.001 | – | – |
| Cn1nc2nc(-c3ccc(N)c(C#N)c3)cc(C(F)(F)F)c2c1-c1ccccc1 [Compound 108, 2-Amino-5-[2-methyl-3-phenyl-4-(trifluoromethyl)-2H-pyrazolo[3,4-b]pyridin-6-yl]benzonitrile] | 295 | 0.003 | – | – |

Second part, led by results:

| melting point [°C] | Structure (SMILES) | minimal effective concentration [1] [µM] | Activity [1] | weight of granuloma (dry weight of the skin) [2] |
| --- | --- | --- | --- | --- |
| 296 | N#Cc1cc(-c2cc(C(F)F)c3c(-c4cccnc4)n[nH]c3n2)ccc1N [Compound 91, 2-Amino-5-[4-(difluoromethyl)-3-(pyridin-3-yl)-1H-pyrazolo[3,4-b]pyridin-6-yl]benzonitrile] | 0.3 | – | – |
| 276 | Cn1ncc2c(C(F)(F)F)cc(-c3ccc(N)c(C#N)c3)nc21 [Compound 88, 2-Amino-5-[1-methyl-4-(trifluoromethyl)-1H-pyrazolo[3,4-b]pyridin-6-yl]benzonitrile] | 0.003 | – | – |
| 269 | Cn1nc(-c2ccccc2)c2c(C(F)(F)F)cc(-c3ccc(N)c(C#N)c3)nc21 [Compound 57, 2-Amino-5-[1-methyl-3-phenyl-4-(trifluoromethyl)-1H-pyrazolo[3,4-b]pyridin-6-yl]benzonitrile] | 0.003 | – | – |
| 251 | Cn1ncc2c(C(F)F)cc(-c3ccc(N)c(C#N)c3)nc21 [Compound 72, 2-Amino-5-[4-(difluoromethyl)-1-methyl-1H-pyrazolo[3,4-b]pyridin-6-yl]benzonitrile] | 0.01 | – | – |
| 227 | CN(C)c1ccc(-c2cc(C(F)(F)F)c3c(-c4ccccc4)n[nH]c3n2)cc1 [Compound 61, N,N-Dimethyl-4-[3-phenyl-4-(trifluoromethyl)-1H-pyrazolo[3,4-b]pyridin-6-yl]aniline] | 0.001 | – | – |
| 263 | N#Cc1cc(-c2cc(C(F)F)c3cn[nH]c3n2)ccc1N [Compound 75, 2-Amino-5-[4-(difluoromethyl)-1H-pyrazolo[3,4-b]pyridin-6-yl]benzonitrile] | 0.01 | – | – |
| 249 | Cn1cc2c(C(F)(F)F)cc(-c3ccc(N)c(C#N)c3)nc2n1 [Compound 114, 2-Amino-5-[2-methyl-4-(trifluoromethyl)-2H-pyrazolo[3,4-b]pyridin-6-yl]benzonitrile] | 0.003 | – | – |
